How the values were obtained:
[1] = Self-assembled nano drug-delivery system, scanning electron microscope; type: physicochemical; conditions: self-assembled in PBS or ultrapure water
Method: The compound F-1 synthesized in Embodiment 1 was used, and a proper amount of F-1-DMSO solution was added into a phosphate buffer (PBS) or ultrapure water as required. After shaking the mixture evenly, the compound F-1 could be self-assembled in the PBS or ultrapure water to form a nanoparticle system. It can be seen from FIG. 14 that the nanoparticles formed by the self-assembly of the compound F-1 in the nano-system are about 200 nanometers in size, regular in shape and uniform in size, and have excellent dispersion properties.

[2] = Spectral test experiment (UV-vis spectrophotometer and fluorescence spectrometer); type: physicochemical; conditions: in dichloromethane
Method: The compound F-1 synthesized in Embodiment 1 was used, and F-1-DMSO solution was added into dichloromethane and mixed evenly. Spectral properties of the compound F-1 were tested by a UV-vis spectrophotometer and a fluorescence spectrometer. The results are shown in FIG. 2, wherein the F-1 molecules have the maximum absorption and the maximum emission at 680 nanometers and 700 nanometers in the dichloromethane respectively.
The compound F-2 synthesized in Embodiment 6 was used, and F-2-DMSO solution was added into dichloromethane and mixed evenly. Spectral properties of the […] were tested by a UV-vis spectrophotometer and a fluorescence spectrometer. The results are shown in FIG. 6, wherein the F-2 molecules have the maximum absorption and the maximum emission at 686 nanometers and 712 nanometers in the dichloromethane are respectively.
The compound F-3 synthesized in Embodiment 11 was used, and F-3-DMSO solution was added into dichloromethane and mixed evenly. Spectral properties of the […] were tested by a UV-vis spectrophotometer and a fluorescence spectrometer. The results are shown in FIG. 10, wherein the F-3 molecules have the maximum absorption and the maximum emission at 697 nanometers and 740 nanometers in the dichloromethane.

[3] = system: MCF-7 (human breast cancer cell); assay: In vitro cell anti-cancer test under illumination (MTT); type: cell-based; conditions: MTT cell survival rate; for killing effect on the cells under illumination: MCF-7, 30 minutes incubation, red light 660 nanometers; for killing effect on the cells without illumination: MCF-7, no illumination
Method: MCF-7 (human breast cancer cell) was planted in 96-well culture plates at a density of 5000 cells per well and cultured in a cell incubator for 24 hours (37° C., 5% CO2). The compound F-1 synthesized in Embodiment 1 was used, and F-1-DMSO solution was added into DMEM containing 10% fetal calf serum to prepare solutions with different concentrations, and the prepared solutions were added to the 96-well culture plates and placed in a cell incubator to incubate for 30 minutes, and then irradiated for a certain period by red light with a wavelength of 660 nanometers. After irradiation, 96 empty plates were placed in a cell incubator and continuously incubated for 12 hours. Then, 100 μl of culture medium containing 5 mg/ml MTT was added to each well, and incubated in a cell incubator for 4 hours. The culture solutions in the well of the plates were removed, 100 µl of DMSO was added to each well to fully dissolve MTT oxidation products, and then the absorbance of each well at 570 nanometers and 630 nanometers were measured with a microplate reader, and a cell survival rate was calculated.
MCF-7 (human breast cancer cell) was planted in 96-well culture plates at a density of 5000 cells per well and cultured in a cell incubator for 24 hours (37° C., 5% CO2). The compound F-2 synthesized in Embodiment 6 was used, and F-2-DMSO solution was added into DMEM containing 10% fetal calf serum to prepare solutions with different concentrations, and the prepared solutions were added to the 96-well culture plates and placed in the cell incubator to incubate for 30 minutes, and then irradiated for a certain period by red light with a wavelength of 660 nanometers. After irradiation, 96 empty plates were placed in a cell incubator and continuously incubated for 12 hours. Then, 100 μl of culture medium containing 5 mg/ml MTT was added to each well, and incubated in a cell incubator for 4 hours. The culture solutions in the well of the plates were removed, 100 µl of DMSO was added to each well to fully dissolve MTT oxidation products, and then the absorbance of each well at 570 nanometers and 630 nanometers were measured with a microplate reader, and a cell survival rate was calculated.
MCF-7 (human breast cancer cell) was planted in 96-well culture plates at a density of 5000 cells per well and cultured in a cell incubator for 24 hours (37° C., 5% CO2). The compound F-3 synthesized in Embodiment 11 was used, and […] was added into DMEM containing 10% fetal calf serum to prepare solutions with different concentrations, and the prepared solutions were added to the 96-well culture plates and placed in the cell incubator to incubate for 30 minutes, and then irradiated for a certain period by red light with a wavelength of 660 nanometers. After irradiation, 96 empty plates were placed in a cell incubator and continuously incubated for 12 hours. Then, 100 μl of culture medium containing 5 mg/ml MTT was added to each well, and incubated in a cell incubator for 4 hours. The culture solutions in the well of the plates were removed, 100 μl of DMSO was added to each well to fully dissolve MTT oxidation products, and then the absorbance of each well at 570 nanometers and 630 nanometers were measured with a microplate reader, and a cell survival rate was calculated.

| SMILES | size of nanoparticles formed by self-assembly [1] | maximum absorption [2] [nanometers] | maximum emission [2] [nanometers] | killing effect on the cells under illumination [3] | killing effect on the cells without illumination [3] |
| --- | --- | --- | --- | --- | --- |
| CC/N=c1/cc2sc3c4c5c(cc3nc-2c2ccccc12)CCCN5CCC4 [Compound F-1] | about 200 nanometers | 680 | 700 | obvious killing effect on the cells | very small killing effect on the cells without illumination, and has almost no toxicity |
| CC/N=c1/cc2[se]c3c4c5c(cc3nc-2c2ccccc12)CCCN5CCC4 [Compound F-2] | – | 686 | 712 | obvious killing effect on the cells at low energy density of illumination | very small killing effect on the cells without illumination, and has almost no toxicity |
| CC/N=c1/cc2[te]c3c4c5c(cc3nc-2c2ccccc12)CCCN5CCC4 [Compound F-3] | – | 697 | 740 | obvious killing effect on the cells at low energy density of illumination | a certain killing effect on the cells without illumination |

Source: patent US11639360B2, “Oxazine compound and application thereof” (DALIAN UNIVERSITY OF TECHNOLOGY, priority 2018, dated 2023)
